Laboratory results taken from US20250295796A1, “CELL PENETRATING POLYPEPTIDES (CPPS) AND THEIR USE IN HUMAN THERAPY” (RDP PHARMA AG, priority 2021, published 2025).

How the values were obtained:
[1] = system: HCT116 human colon carcinoma xenograft with null p53 (HCT116 p53−/−); assay: HCT116 p53-/- xenograft, single agent and combination with cisplatin or vincristine; type: in vivo, female athymic nude mice; settings: for % TGD (tumor growth delay) / time to study endpoint (TTE): endpoint tumor volume of 1000 mm^3, CROMOC36 as single agent or in combination; for time to study endpoint (TTE): control Day 23; for tumor growth inhibition: single-agent reference, q7dx5 (CDDP 4 mg/kg, VCR 2 mg/kg)
Description: A study was conducted to evaluate the efficacy and tolerability of CROMOC36 against an HCT116 human colon carcinoma xenograft model with null p53 (HCT116 p53−/−) in female athymic nude mice. CROMOC36 was administered subcutaneously (s.c.) three times at intervals of two weeks (q14dx3) as a single agent or in combination with cisplatin (CDDP) at 4 mg/kg or vincristine (VCR) at 2 mg/kg which were both administered five times at intervals of one week (q7dx5). CROMOC36 was tested at 32 mg/kg or using a decreasing dosage of 32-16-16 mg/kg. CDDP and VCR were also administered as single agents to allow comparison of the efficacy of CROMOC36 with commonly used anticancer drugs. The dose and schedule of CDDP and VCR treatments remained the same when tested as single agents or in combination with CROMOC36. […] Efficacy was also evaluated by measuring the tumor growth delay (TGD) and the number of regression responses.

[2] = system: murine Lewis lung carcinoma; assay: Lewis lung carcinoma (LLC) model, primary tumor growth and metastasis
Description: The efficacy of CROMOC36 on the Lewis lung carcinoma (LLC) model, was selected for testing the activity of CROMOC36 against primary tumor growth and metastasis formation. CROMOC36 was tested as a single agent and in combination with Cyclophosphamide (CYPP). In addition, single-agent CYPP was used as a reference compound, allowing comparison of the efficacy of CROMOC36 with a commonly used antitumor agent (summarized in FIG. 9).

[3] = system: M5076 ovarian reticulum sarcoma tumor cell line; assay: M5076 artificial hepatic metastasis model, i.v. route; settings: CROMOC36 16 mg/kg i.v. q7dx3; Doxorubicin 6 mg/kg q4dx3 (MTD)
[4] = system: IMR32 human neuroblastoma xenograft; assay: IMR32 human neuroblastoma xenograft model; type: in vivo, mice; settings: single agent, q14dx2; CROMOC36 32 mg/Kg s.c.; doxorubicin 8 mg/kg i.v.
Text: FIG. 11: IMR32 s.c. implanted. Treatment on xenograft mice with advanced tumors (volume >50 mm^3). Variation in tumor volume expressed as percentage with respect to initial volume (day 0; designated as 100%). Final measurements for vehicle (PBS) and Doxorubicin groups were taken on day 42. For the remaining groups, final measurements were taken on day 63, the termination day of the experiment. Growth reduction compared to controls on day 42 (p<0.01).
The aim of this study was to assess the in vivo efficacy of CROMOC36 on a IMR32 human neuroblastoma xenograft model. CROMOC36 was administered subcutaneously (s.c.) at intervals of two weeks (q14dx2) at two different doses (32 mg/Kg) and also in combination with doxorubicin administered intravenously (i.v.) (32/kg CROMOC36+4+4 mg/Kg doxorubicin, s.c and i.v., q14dx2). Doxorubicin was also used alone as a reference compound (8 mg/kg, i.v., q14dx2). Vehicle was PBS.

[5] = system: HEPG2; assay: Monolayer assay, 96h treatment, HEPG2; type: cell-based, human; settings: Homo sapiens; HEPG2, 96h treatment
Description: (§1) Monolayer Assay Propidium Iodid (PI). Cells were harvested from exponential phase cultures, counted and depending on the cell line 3.000 to 20.000 cells were plated in 96-well flat-bottom microtiter plates After a 24 h recovery period to allow cells to resume exponential growth, 10 μl of culture medium (four control wells/plate) or culture medium with the test compound were added by a liquid handling robotic system and treatment continued for four days. Compounds were applied in half-log increments at 10 concentrations in duplicate. Three independent experiments were performed. Cells were then washed with 200 μl PBS to remove dead cells followed by addition of 200 μl of a solution containing 7 μg/ml propidium iodide (PI) and 0.1% (v/v) Triton X-100. After an incubation period of 1-2 h at room temperature, fluorescence (FU) was measured using the Cytofluor 4000 microplate reader (excitation λ=530 nm, emission λ=620 nm) to quantify the amount of attached viable cells. Concentrations required for 50% inhibition of cell growth (IC50) were calculated by non-linear regression (log[conc. of inhibitor]versus response (% T/C)) using the analysis software GraphPad Prism®, Prism 5 for windows, version 5.01 (GraphPad Software Inc., CA).
(§2) CROMOC36—in vitro activity Human hepatocellular carcinoma cell lines IC50 values of CROMOC36 and Sorafenib, 96h treatment. […]

[6] = system: Human hepatocellular carcinoma cell lines; assay: Monolayer assay, human hepatocellular carcinoma cell lines, 96h treatment (geomean of three lines); type: cell-based; settings: Homo sapiens; three HCC cell lines, 96h treatment
Description: as §1
CROMOC36—in vitro activity Human hepatocellular carcinoma cell lines IC50 values of CROMOC36 and Sorafenib, 96h treatment. […] The individual results for CROMOC36 are included in FIG. 24. […] The individual results for Sorafenib are included in (FIG. 24).

[7] = system: LIXF 575L; assay: Monolayer assay, 96h treatment, LIXF 575L; type: cell-based, human; settings: Homo sapiens
Description: as §1, §2

[8] = system: HEP3B; assay: Monolayer assay, 96h treatment, HEP3B; type: cell-based, human; settings: Homo sapiens
Description: as §1, §2

[9] = system: human pancreatic tumor cell lines; assay: Propidium iodide based monolayer proliferation assay, panel of 13 human pancreatic tumor cell lines; settings: Homo sapiens, 96 h; 13 pancreatic cell lines, four days treatment; read-out: geomean IC50
Description: as §1
CROMOC36—in vitro activity Human pancreatic carcinoma cell lines. The aim of this study was to investigate the antitumor activity of CROMOC36 in vitro on a panel of 13 human pancreatic tumor cell lines. Antitumor activity was assessed after four days of CROMOC36 treatment using a propidium iodide based monolayer proliferation assay. Up to four experiments were performed in each cell line, testing CROMOC36 at ten concentrations in half-log increments up to 1 μM. Taxol, an antitumor agent commonly used for the treatment of pancreatic cancer, was used as a reference compound and tested in half-log steps up to 0.3 μM.

[10] = system: Osteosarcoma (U2OS) cell; assay: Monolayer Sulphorhodamine B (SRB) staining assay, 72 hours, preCROMOC-DDM fusion molecules; type: cell-based, human; settings: CPP fused to preCROMOC
Description: Cells were harvested from exponential phase cultures, and depending on the cell line 10.000 to 30.000 cells were plated in 96-well flat-bottom microtiter plates. After a 24 h recovery period to allow cells to resume exponential growth, supernatant was discarded and 100 μl of culture medium (eight control wells/plate) or culture medium with the test compound were added by a liquid handling robotic system (Microlab® Starlet, Hamilton) and treatment continued for 72 hrs. Compounds were applied at 9 concentrations eight wells/concentration). At least three independent experiments were performed. For SRB staining, cells were fixed with SRB01 for 1h at 4° C. (final concentration of TCA=10%) washed with a plate washer (Hydroflex, Tecan©) for five times with H2O; and stained with 100 μl of SRB02 at room temperature for 10 min following 4 washes in SRB03 and finally 100 μl of developer solution SRB04 for 5 minutes with shaking. Optical density was assessed using a plate-reader (Sunrise, Tecan©) at 540 nm. Concentrations required for 50% inhibition of cell growth (IC50) were calculated by non-linear regression (log[conc. of inhibitor] versus response (% T/C)) using the analysis software GraphPad Prism®, Prism 5 for windows, version 5.01 (GraphPad Software Inc., CA). (SRB Buffers FIG. 25).

[11] = system: human colon carcinoma with null p53 (HCT116 p53−/−) xenograft; assay: HCT116 p53-/- xenograft, CROMOC36 versus nuclease impaired CROMOC60; type: in vivo, mouse; settings: s.c. 4 mg/kg on days 0, 1, 2, 3, 6, 7, 8, 9, 10, 20, 22, 24
Description: FIG. 7: HCT116 p53−/− human colon carcinoma xenograft. Treatment on advanced tumors (volume >50 mm^3). Dose: CROMOC36 4 mg/kg; CROMOC60 4 mg/kg. Treatment: s.c. administration on day 0, 1, 2, 3, 6, 7, 8, 9, 10, 20, 22, 24.
A study was conducted to test the antitumor efficacy of CROMOC36 on an advanced human colon carcinoma with null p53 (HCT116 p53−/−) xenograft model and compare it to a vehicle or a nuclease impaired version CROMOC60 treatment group. CROMOC60 is no more catalytically active as a nuclease but is able to be transported to the nucleus of a cell. This study was also designed to proof that the active principle of the tumor growth inhibiting activity of CROMOC is the nuclease activity in vivo. CROMOC36 and CROMOC60 were both administered subcutaneously (s.c.) at 4 mg/kg dose on the days 0, 1, 2, 3, 6, 7, 8, 9, 10, 20, 22, 24. […] This also proofs that CROMOC36 can serve as a valid DNA DSB reagent.

[NH2][Pt]([NH2])([Cl])[Cl] [CDDP, cisplatin, reference compound]
% TGD (tumor growth delay) [1]: 48%
time to study endpoint (TTE) [1]: 34 days
tumor growth inhibition [1]: 47.2%

O=P1(N(CCCl)CCCl)NCCCO1 (centres unmarked) [CYPP, Cyclophosphamide, reference compound]
inhibition of number of metastases ([2]; CYPP single agent, 180 mg/kg): 62%
tumor growth inhibition (TI), primary tumor ([2]; single agent, CROMOC36 s.c. q2dx5): 78.6%

COc1cccc2c1C(=O)c1c(O)c3c(c(O)c1C2=O)C[C@@](O)(C(=O)CO)C[C@@H]3O[C@H]1C[C@H](N)[C@H](O)[C@H](C)O1 [Doxorubicin, reference compound]
% ILS (mean survival time versus control group) [3]: 32%
tumor growth inhibition (TGI) compared to controls [4]: 10%

CNC(=O)c1cc(Oc2ccc(NC(=O)Nc3ccc(Cl)c(C(F)(F)F)c3)cc2)ccn1 [Sorafenib, reference compound]
IC50 [5]: 5.97 µM
IC50 [6]: 4.68 µM
IC50 [7]: 6.07 µM
IC50 [8]: 2830 nM

CC(=O)O[C@H]1C(=O)[C@@]2(C)[C@H]([C@H](OC(=O)c3ccccc3)[C@]3(O)C[C@H](OC(=O)[C@H](O)[C@@H](NC(=O)c4ccccc4)c4ccccc4)C(C)=C1C3(C)C)[C@]1(OC(C)=O)CO[C@@H]1C[C@@H]2O [Taxol, reference compound]
IC50 [9]: 1.99 nM

CC[C@]1(O)C[C@H]2CN(CCc3c([nH]c4ccccc34)[C@@](C(=O)OC)(c3cc4c(cc3OC)N(C=O)[C@H]3[C@@](O)(C(=O)OC)[C@H](OC(C)=O)[C@]5(CC)C=CCN6CC[C@]43[C@@H]65)C2)C1 [VCR, vincristine, reference compound]
% TGD (tumor growth delay) [1]: 52%
time to study endpoint (TTE) [1]: 35 days
tumor growth inhibition [1]: 45.4%

GNSGSGKKKKKGKGSGLGSGKKKDPLGSGLGSGKKKKKGKGSGLGSGKKKDPLGST (peptide, DDM36)
activity in the SRB assay compared with TAT, Pentratin, and Transportan [10]: orders of magnitude higher activity

B1: CROMOC60: nuclease impaired version; no more catalytically active as a nuclease but able to be transported to the nucleus (protein)
chain: MSHPDLNKLLELWPHIQEYQDLALKHGINDIFQDNGGKLLQVLLITGLTVLPGREGNDAVDNAGQEYELKSINIDLTAGFSTHHHMNPVIIAKYRQVPWIFAIYRGIAIEAIYRLEPKDLEFYYDKWERKWYSDGHKDINNPKIPVKYVMEHGTKIYGSGGSGGSSHPDLNKLLELWPHIQEYQDLALKHGINDIFQDNGGKLLQVLLITGLTVLPGREGNDAVDNAGQEYELKSINIDLTAGFSTHHHMNPVIIAKYRQVPWIFAIYRGIAIEAIYRLEPKDLEFYYDKWERKWYSDGHKDINNPKIPVKYVMEHGTKIYGNSGSGKKKKKGKGSGLGSGKKKDPLGSGLGSGKKKKKGKGSGLGSGKKKDPLGST
modifications: peptide, CROMOC60
progression of HCT116 p53−/− human colon carcinoma as compared to vehicle control [11]: not
